In patent publication US9717243B2, “Piperidinecarboxylic acid derivatives as fungicides” (priority 2013, dated 2017):

Test: LogP by HPLC on reversed phase columns (EEC directive 79/831 Annex V.A8)
Format: physicochemical
Details: not given
Protocol: Calibration was done with straight-chain alkan2-ones (with 3 to 16 carbon atoms) with known LogP values (measurement of LogP values using retention times with linear interpolation between successive alkanones). Lambda-max-values were determined using UV-spectra from 200 nm to 400 nm and the peak values of the chromatographic signals.

SMILES | Log P[a]
COC(=O)C1(c2nc(C3=NOC(c4c(F)cccc4F)C3)cs2)CCN(C(=O)Cn2nc(C(F)F)cc2C(F)F)CC1 (stereo not shown) [Example I-1] | 3.44
C#CCOc1ccccc1C1CC(c2csc(C3(C(=O)OC)CCN(C(=O)Cn4nc(C(F)F)cc4C(F)F)CC3)n2)=NO1 (stereo not shown) [Example I-4] | 3.61
COC(=O)C1(c2nc(C3=NOC(c4ccccc4)C3)cs2)CCN(C(=O)Cn2nc(C(F)F)cc2C(F)F)CC1 (stereo not shown) [Example I-5] | 3.48
COC(=O)C1(c2nc(C3=NOC(c4ccccc4OS(C)(=O)=O)C3)cs2)CCN(C(=O)Nc2cc(C(F)F)nn2C)CC1 (stereo not shown) [Example I-8] | 2.64
COC(=O)C1(c2nc(C3=NOC(c4c(Cl)cccc4OS(C)(=O)=O)C3)cs2)CCN(C(=O)Nc2cn(C(F)F)nc2C)CC1 (stereo not shown) [Example I-13] | 2.86
COC(=O)C1(c2nc(C3=NOC(c4c(Cl)cccc4OS(C)(=O)=O)C3)cs2)CCN(C(=O)Nc2cn(C)nc2C(F)F)CC1 (stereo not shown) [Example I-14] | 2.73
C#CCOc1ccccc1C1CC(c2csc(C3(C(=O)OC)CCN(C(=O)Nc4cc(C(F)F)nn4C)CC3)n2)=NO1 (stereo not shown) [Example I-15] | 3.00
C#CCOc1ccc(F)c(F)c1C1CC(c2csc(C3(C(=O)OC)CCN(C(=O)Nc4cc(C(F)F)nn4C)CC3)n2)=NO1 (stereo not shown) [Example I-16] | 3.00
C#CCOc1ccccc1C1CC(c2csc(C3(C(=O)OC)CCN(C(=O)Nc4cn(C(F)F)nc4C)CC3)n2)=NO1 (stereo not shown) [Example I-17] | 3.02
C#CCOc1ccc(F)c(F)c1C1CC(c2csc(C3(C(=O)OC)CCN(C(=O)Nc4cn(C(F)F)nc4C)CC3)n2)=NO1 (stereo not shown) [Example I-18] | 3.04
COC(=O)C1(c2nc(C3=NOC(c4ccccc4OS(C)(=O)=O)C3)cs2)CCN(C(=O)Nc2cn(C)nc2C(F)F)CC1 (stereo not shown) [Example I-19] | 2.53
C#CCOc1ccccc1C1CC(c2csc(C3(C(=O)OC)CCN(C(=O)Nc4cn(C)nc4C(F)F)CC3)n2)=NO1 (stereo not shown) [Example I-20] | 2.88
C#CCOc1ccc(F)c(F)c1C1CC(c2csc(C3(C(=O)OC)CCN(C(=O)Nc4cn(C)nc4C(F)F)CC3)n2)=NO1 (stereo not shown) [Example I-21] | 2.88
CCOC(=O)C1(c2nc(C3=NOC(c4c(Cl)cccc4OS(C)(=O)=O)C3)cs2)CCN(C(=O)Cn2nc(C(F)F)cc2C(F)F)CC1 (stereo not shown) [Example I-22] | 3.71
CCOC(=O)C1(c2nc(C3=NOC(c4c(F)cccc4F)C3)cs2)CCN(C(=O)Cn2nc(C(F)F)cc2C(F)F)CC1 (stereo not shown) [Example I-24] | 3.73
CCOC(=O)C1(c2nc(C3=NOC(c4ccccc4)C3)cs2)CCN(C(=O)Cn2nc(C(F)F)cc2C(F)F)CC1 (stereo not shown) [Example I-25] | 3.76
CCOC(=O)C1(c2nc(C3=NOC(c4ccccc4OS(C)(=O)=O)C3)cs2)CCN(C(=O)Cn2nc(C(F)F)cc2C(F)F)CC1 (stereo not shown) [Example I-26] | 3.51
C#CCOc1ccccc1C1CC(c2csc(C3(C(=O)OCC)CCN(C(=O)Cn4nc(C(F)F)cc4C(F)F)CC3)n2)=NO1 (stereo not shown) [Example I-27] | 3.87
C#CCOc1ccc(F)c(F)c1C1CC(c2csc(C3(C(=O)OCC)CCN(C(=O)Cn4nc(C(F)F)cc4C(F)F)CC3)n2)=NO1 (stereo not shown) [Example I-28] | 3.85
CC(C)OC(=O)C1(c2nc(C3=NOC(c4c(Cl)cccc4OS(C)(=O)=O)C3)cs2)CCN(C(=O)Cn2nc(C(F)F)cc2C(F)F)CC1 (stereo not shown) [Example I-29] | 3.96
CC(C)OC(=O)C1(c2nc(C3=NOC(c4c(F)cccc4F)C3)cs2)CCN(C(=O)Cn2nc(C(F)F)cc2C(F)F)CC1 (stereo not shown) [Example I-31] | 3.99
CC(C)OC(=O)C1(c2nc(C3=NOC(c4ccccc4)C3)cs2)CCN(C(=O)Cn2nc(C(F)F)cc2C(F)F)CC1 (stereo not shown) [Example I-32] | 4.04

SMILES | Log P[a]
C#CCOc1ccccc1C1CC(c2csc(C3(C(=O)OC(C)C)CCN(C(=O)Cn4nc(C(F)F)cc4C(F)F)CC3)n2)=NO1 (stereo not shown) [Example I-33] | 4.14
C#CCOc1ccc(F)c(F)c1C1CC(c2csc(C3(C(=O)OC(C)C)CCN(C(=O)Cn4nc(C(F)F)cc4C(F)F)CC3)n2)=NO1 (stereo not shown) [Example I-34] | 4.09
CS(=O)(=O)Oc1cccc(Cl)c1C1CC(c2csc(C3(C(=O)OCc4ccccc4)CCN(C(=O)Cn4nc(C(F)F)cc4C(F)F)CC3)n2)=NO1 (stereo not shown) [Example I-35] | 4.19
O=C(Cn1nc(C(F)F)cc1C(F)F)N1CCC(C(=O)OCc2ccccc2)(c2nc(C3=NOC(c4c(F)cccc4F)C3)cs2)CC1 (stereo not shown) [Example I-37] | 4.21
O=C(Cn1nc(C(F)F)cc1C(F)F)N1CCC(C(=O)OCc2ccccc2)(c2nc(C3=NOC(c4ccccc4)C3)cs2)CC1 (stereo not shown) [Example I-38] | 4.26
C#CCOc1ccccc1C1CC(c2csc(C3(C(=O)OCc4ccccc4)CCN(C(=O)Cn4nc(C(F)F)cc4C(F)F)CC3)n2)=NO1 (stereo not shown) [Example I-39] | 4.34
C#CCOc1ccc(F)c(F)c1C1CC(c2csc(C3(C(=O)OCc4ccccc4)CCN(C(=O)Cn4nc(C(F)F)cc4C(F)F)CC3)n2)=NO1 (stereo not shown) [Example I-40] | 4.31
C=CCOC(=O)C1(c2nc(C3=NOC(c4c(Cl)cccc4OS(C)(=O)=O)C3)cs2)CCN(C(=O)Cn2nc(C(F)F)cc2C(F)F)CC1 (stereo not shown) [Example I-41] | 3.80
C=CCOC(=O)C1(c2nc(C3=NOC(c4c(F)cccc4F)C3)cs2)CCN(C(=O)Cn2nc(C(F)F)cc2C(F)F)CC1 (stereo not shown) [Example I-43] | 3.83
C=CCOC(=O)C1(c2nc(C3=NOC(c4ccccc4)C3)cs2)CCN(C(=O)Cn2nc(C(F)F)cc2C(F)F)CC1 (stereo not shown) [Example I-44] | 3.85
C#CCOc1ccccc1C1CC(c2csc(C3(C(=O)OCC=C)CCN(C(=O)Cn4nc(C(F)F)cc4C(F)F)CC3)n2)=NO1 (stereo not shown) [Example I-45] | 3.96
C#CCOc1ccc(F)c(F)c1C1CC(c2csc(C3(C(=O)OCC=C)CCN(C(=O)Cn4nc(C(F)F)cc4C(F)F)CC3)n2)=NO1 (stereo not shown) [Example I-46] | 3.94
CSCCOC(=O)C1(c2nc(C3=NOC(c4c(Cl)cccc4OS(C)(=O)=O)C3)cs2)CCN(C(=O)Cn2nc(C(F)F)cc2C(F)F)CC1 (stereo not shown) [Example I-47] | 3.85
CSCCOC(=O)C1(c2nc(C3=NOC(c4c(F)cccc4F)C3)cs2)CCN(C(=O)Cn2nc(C(F)F)cc2C(F)F)CC1 (stereo not shown) [Example I-49] | 3.87
CSCCOC(=O)C1(c2nc(C3=NOC(c4ccccc4)C3)cs2)CCN(C(=O)Cn2nc(C(F)F)cc2C(F)F)CC1 (stereo not shown) [Example I-50] | 3.89
C#CCOc1ccccc1C1CC(c2csc(C3(C(=O)OCCSC)CCN(C(=O)Cn4nc(C(F)F)cc4C(F)F)CC3)n2)=NO1 (stereo not shown) [Example I-51] | 4.01
C#CCOc1ccc(F)c(F)c1C1CC(c2csc(C3(C(=O)OCCSC)CCN(C(=O)Cn4nc(C(F)F)cc4C(F)F)CC3)n2)=NO1 (stereo not shown) [Example I-52] | 3.99
CS(=O)(=O)Oc1cccc(Cl)c1C1CC(c2csc(C3(C(=O)OC4CCOC4)CCN(C(=O)Cn4nc(C(F)F)cc4C(F)F)CC3)n2)=NO1 (stereo not shown) [Example I-53] | 3.39
O=C(Cn1nc(C(F)F)cc1C(F)F)N1CCC(C(=O)OC2CCOC2)(c2nc(C3=NOC(c4c(F)cccc4F)C3)cs2)CC1 (stereo not shown) [Example I-55] | 3.39
O=C(Cn1nc(C(F)F)cc1C(F)F)N1CCC(C(=O)OC2CCOC2)(c2nc(C3=NOC(c4ccccc4)C3)cs2)CC1 (stereo not shown) [Example I-56] | 3.39
CS(=O)(=O)Oc1ccccc1C1CC(c2csc(C3(C(=O)OC4CCOC4)CCN(C(=O)Cn4nc(C(F)F)cc4C(F)F)CC3)n2)=NO1 (stereo not shown) [Example I-57] | 3.21

Same assay, conditions: Table 1, compounds of formula (I); LC-UV, acidic range, 0.1% formic acid in water and acetonitrile as eluent

SMILES | Log P[a]
COC(=O)C1(c2nc(C3=NOC(c4ccccc4-c4ccccc4)C3)cs2)CCN(C(=O)Cn2nc(C(F)F)cc2C(F)F)CC1 (stereo not shown) [Example I-2] | 4.36
COC(=O)C1(c2nc(C3=NOC(c4c(Cl)cccc4OS(C)(=O)=O)C3)cs2)CCN(C(=O)Cn2nc(C(F)F)cc2C(F)F)CC1 (stereo not shown) [Example I-6] | 3.44
CCOC(=O)C1(c2nc(C3=NOC(c4ccccc4-c4ccccc4)C3)cs2)CCN(C(=O)Cn2nc(C(F)F)cc2C(F)F)CC1 (stereo not shown) [Example I-23] | 4.64
CC(C)OC(=O)C1(c2nc(C3=NOC(c4ccccc4-c4ccccc4)C3)cs2)CCN(C(=O)Cn2nc(C(F)F)cc2C(F)F)CC1 (stereo not shown) [Example I-30] | 4.92
O=C(Cn1nc(C(F)F)cc1C(F)F)N1CCC(C(=O)OCc2ccccc2)(c2nc(C3=NOC(c4ccccc4-c4ccccc4)C3)cs2)CC1 (stereo not shown) [Example I-36] | 5.08
C=CCOC(=O)C1(c2nc(C3=NOC(c4ccccc4-c4ccccc4)C3)cs2)CCN(C(=O)Cn2nc(C(F)F)cc2C(F)F)CC1 (stereo not shown) [Example I-42] | 4.72
CSCCOC(=O)C1(c2nc(C3=NOC(c4ccccc4-c4ccccc4)C3)cs2)CCN(C(=O)Cn2nc(C(F)F)cc2C(F)F)CC1 (stereo not shown) [Example I-48] | 4.77
O=C(Cn1nc(C(F)F)cc1C(F)F)N1CCC(C(=O)OC2CCOC2)(c2nc(C3=NOC(c4ccccc4-c4ccccc4)C3)cs2)CC1 (stereo not shown) [Example I-54] | 4.31

Same assay, conditions: Table 1, compounds of formula (I); LC-UV, acidic range, 0.1% formic acid in water and acetonitrile as eluent; read-out: Log P[a]

SMILES | chromatographic logP
COC(=O)C1(c2nc(C3=NOC(c4c(Cl)cccc4OS(C)(=O)=O)C3)cs2)CCN(C(=O)Nc2cc(C(F)F)nn2C)CC1 (stereo not shown) [Example I-12, methyl 4-[4-(5-{2-chloro-6-[(methylsulfonyl)oxy]phenyl}-4,5-dihydro-1,2-oxazol-3-yl)-1,3-thiazol-2-yl]-1-{[3-(difluoromethyl)-1-methyl-1H-pyrazol-5-yl]carbamoyl}piperidine-4-carboxylate] | 2.84

Same assay, conditions: pH 2.7; synthesis intermediates in preparation examples; read-out: LogP (pH 2.7)

SMILES | chromatographic logP
CC(=O)C1=NOC(c2c(Cl)cccc2OS(C)(=O)=O)C1 (stereo not shown) [2-(3-acetyl-4,5-dihydro-1,2-oxazol-5-yl)-3-chlorophenyl methanesulfonate] | 2.46
CS(=O)(=O)Oc1cccc(Cl)c1C1CC(C(=O)CBr)=NO1 (stereo not shown) [2-[3-(bromoacetyl)-4,5-dihydro-1,2-oxazol-5-yl]-3-chlorophenyl methanesulfonate] | 2.93
CS(=O)(=O)Oc1ccccc1C1CC(C(=O)CCl)=NO1 (stereo not shown) [2-[3-(chloroacetyl)-4,5-dihydro-1,2-oxazol-5-yl]phenyl methanesulfonate] | 2.54
